Results as given in PubChem BioAssay AID2060500 (Molecular Pharmacology Branch, DTP, NCI, 2025).

Test system: 596521-263-R-J1-PDC complex spheroids, viability % of control
Test: Anticancer human tumor 596521-263-R-J1-PDC patient-derived soft tissue sarcoma cell line growth inhibition [GQUAD]
Settings: for IC50: curve of first compound; for viability, T/C: stronger effect = lower value
How it was run: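 Viability of tumor cells grown as complex spheroids with endothelial and stromal cells, exposed to drug combinations. Top concentration at or near clinical Cmax (else 10 microM), diluted in half-log increments.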

[1] = second compound 0.0316 µM, first compound 0.000999 µM
[2] = second compound 0.0316 µM, first compound 0.00316 µM
[3] = second compound 0.0316 µM, first compound 0.00999 µM
[4] = second compound 0.0316 µM, first compound 0.0316 µM
[5] = second compound 0.0316 µM, first compound 0.0999 µM
[6] = second compound 0.0316 µM, first compound 0.316 µM
[7] = second compound 0.1 µM, first compound 0.000999 µM
[8] = second compound 0.1 µM, first compound 0.00316 µM
[9] = second compound 0.1 µM, first compound 0.00999 µM
[10] = second compound 0.1 µM, first compound 0.0316 µM
[11] = second compound 0.1 µM, first compound 0.0999 µM
[12] = second compound 0.1 µM, first compound 0.316 µM
[13] = second compound 0.316 µM, first compound 0.000999 µM
[14] = second compound 0.316 µM, first compound 0.00316 µM
[15] = second compound 0.316 µM, first compound 0.00999 µM
[16] = second compound 0.316 µM, first compound 0.0316 µM
[17] = second compound 0.316 µM, first compound 0.0999 µM
[18] = second compound 0.316 µM, first compound 0.316 µM
[19] = second compound 1 µM, first compound 0.000999 µM
[20] = second compound 1 µM, first compound 0.00316 µM
[21] = second compound 1 µM, first compound 0.00999 µM
[22] = second compound 1 µM, first compound 0.0316 µM
[23] = second compound 1 µM, first compound 0.0999 µM
[24] = second compound 1 µM, first compound 0.316 µM
[25] = second compound 3.16 µM, first compound 0.000999 µM
[26] = second compound 3.16 µM, first compound 0.00316 µM
[27] = second compound 3.16 µM, first compound 0.00999 µM
[28] = second compound 3.16 µM, first compound 0.0316 µM
[29] = second compound 3.16 µM, first compound 0.0999 µM
[30] = second compound 3.16 µM, first compound 0.316 µM
[31] = second compound 10 µM, first compound 0.000999 µM
[32] = second compound 10 µM, first compound 0.00316 µM
[33] = second compound 10 µM, first compound 0.00999 µM
[34] = second compound 10 µM, first compound 0.0316 µM
[35] = second compound 10 µM, first compound 0.0999 µM
[36] = second compound 10 µM, first compound 0.316 µM
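Also: spheroids exposed to drugs for 7 days before viability reading.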
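For viability, T/C in this document: 100% = DMSO vehicle control viability.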

## CC[C@@]1(O)C(=O)OCc2c1cc1n(c2=O)Cc2cc3c(CN(C)C)c(O)ccc3nc2-1 + CN(C)c1ccc(Nc2c3ccc(NC(=O)CCN4CCCC4)cc3nc3cc(NC(=O)CCN4CCCC4)ccc23)cc1
Second compound 0.0316 µM
  IC50: > 316 nM
Second compound 0.1 µM
  IC50: 161 nM
Second compound 0.316 µM
  IC50: > 316 nM
Second compound 1 µM
  IC50: > 316 nM
Second compound 3.16 µM
  IC50: > 316 nM
Second compound 10 µM
  IC50: 76.9 nM
[1]
  viability, T/C: 99.7%
[2]
  viability, T/C: 108%
[3]
  viability, T/C: 91.9%
[4]
  viability, T/C: 62.4%
[5]
  viability, T/C: 63.8%
[6]
  viability, T/C: 53.2%
[7]
  viability, T/C: 114%
[8]
  viability, T/C: 105%
[9]
  viability, T/C: 103%
[10]
  viability, T/C: 65.3%
[11]
  viability, T/C: 54.3%
[12]
  viability, T/C: 46.2%
[13]
  viability, T/C: 94.5%
[14]
  viability, T/C: 97.9%
[15]
  viability, T/C: 83.3%
[16]
  viability, T/C: 74.1%
[17]
  viability, T/C: 59.4%
[18]
  viability, T/C: 53.6%
[19]
  viability, T/C: 92%
[20]
  viability, T/C: 92.9%
[21]
  viability, T/C: 86.1%
[22]
  viability, T/C: 73.1%
[23]
  viability, T/C: 57.3%
[24]
  viability, T/C: 54.2%
[25]
  viability, T/C: 95.8%
[26]
  viability, T/C: 88.8%
[27]
  viability, T/C: 84.1%
[28]
  viability, T/C: 61.1%
[29]
  viability, T/C: 59.1%
[30]
  viability, T/C: 52.5%
[31]
  viability, T/C: 58.5%
[32]
  viability, T/C: 70.6%
[33]
  viability, T/C: 54.6%
[34]
  viability, T/C: 50.1%
[35]
  viability, T/C: 52%
[36]
  viability, T/C: 41.4%

## CCc1c2c(nc3ccc(O)cc13)-c1cc3c(c(=O)n1C2)COC(=O)[C@]3(O)CC + CN(C)c1ccc(Nc2c3ccc(NC(=O)CCN4CCCC4)cc3nc3cc(NC(=O)CCN4CCCC4)ccc23)cc1
Second compound 0.0316 µM
  IC50: 5.08 nM
Second compound 0.1 µM
  IC50: 4.06 nM
Second compound 0.316 µM
  IC50: 3.51 nM
Second compound 1 µM
  IC50: 7.44 nM
Second compound 3.16 µM
  IC50: 5.64 nM
Second compound 10 µM
  IC50: 3.75 nM
[1]
  viability, T/C: 66.2%
[2]
  viability, T/C: 54.6%
[3]
  viability, T/C: 43.2%
[4]
  viability, T/C: 28.7%
[5]
  viability, T/C: 16.5%
[6]
  viability, T/C: 7.38%
[7]
  viability, T/C: 60.4%
[8]
  viability, T/C: 51.8%
[9]
  viability, T/C: 41.3%
[10]
  viability, T/C: 28.5%
[11]
  viability, T/C: 15.6%
[12]
  viability, T/C: 9.53%
[13]
  viability, T/C: 61.8%
[14]
  viability, T/C: 50.7%
[15]
  viability, T/C: 39.1%
[16]
  viability, T/C: 28.9%
[17]
  viability, T/C: 15.4%
[18]
  viability, T/C: 8.17%
[19]
  viability, T/C: 61.1%
[20]
  viability, T/C: 57%
[21]
  viability, T/C: 47.5%
[22]
  viability, T/C: 32.3%
[23]
  viability, T/C: 16.7%
[24]
  viability, T/C: 7.43%
[25]
  viability, T/C: 58.6%
[26]
  viability, T/C: 54.7%
[27]
  viability, T/C: 46.6%
[28]
  viability, T/C: 31.1%
[29]
  viability, T/C: 21.4%
[30]
  viability, T/C: 9.32%
[31]
  viability, T/C: 52.9%
[32]
  viability, T/C: 52.7%
[33]
  viability, T/C: 44%
[34]
  viability, T/C: 32.6%
[35]
  viability, T/C: 20.9%
[36]
  viability, T/C: 9.92%

## Cn1ncnc1[C@H]1c2n[nH]c(=O)c3cc(F)cc(c23)N[C@@H]1c1ccc(F)cc1 + CN(C)c1ccc(Nc2c3ccc(NC(=O)CCN4CCCC4)cc3nc3cc(NC(=O)CCN4CCCC4)ccc23)cc1
Second compound 0.0316 µM
  IC50: > 316 nM
Second compound 0.1 µM
  IC50: > 316 nM
Second compound 0.316 µM
  IC50: > 316 nM
Second compound 1 µM
  IC50: > 316 nM
Second compound 3.16 µM
  IC50: > 316 nM
Second compound 10 µM
  IC50: > 316 nM
[1]
  viability, T/C: 106%
[2]
  viability, T/C: 89.4%
[3]
  viability, T/C: 90.6%
[4]
  viability, T/C: 84.8%
[5]
  viability, T/C: 99.6%
[6]
  viability, T/C: 80.5%
[7]
  viability, T/C: 98.4%
[8]
  viability, T/C: 92.1%
[9]
  viability, T/C: 96.6%
[10]
  viability, T/C: 94.7%
[11]
  viability, T/C: 86.6%
[12]
  viability, T/C: 93.5%
[13]
  viability, T/C: 104%
[14]
  viability, T/C: 97.9%
[15]
  viability, T/C: 102%
[16]
  viability, T/C: 94.6%
[17]
  viability, T/C: 83.4%
[18]
  viability, T/C: 80%
[19]
  viability, T/C: 92.4%
[20]
  viability, T/C: 89.5%
[21]
  viability, T/C: 99.8%
[22]
  viability, T/C: 85.1%
[23]
  viability, T/C: 95%
[24]
  viability, T/C: 76.1%
[25]
  viability, T/C: 94%
[26]
  viability, T/C: 97%
[27]
  viability, T/C: 98.4%
[28]
  viability, T/C: 85.5%
[29]
  viability, T/C: 92.6%
[30]
  viability, T/C: 80.8%
[31]
  viability, T/C: 70.1%
[32]
  viability, T/C: 58.9%
[33]
  viability, T/C: 67.3%
[34]
  viability, T/C: 64.9%
[35]
  viability, T/C: 61.5%
[36]
  viability, T/C: 60.2%
